# Measured values from ChEMBL document CHEMBL3885881, “DrugMatrix”.
# Species: Rattus norvegicus
# Test: DrugMatrix - Regimen: Daily Repeat
# Assay type: toxicity, organism-based, Sprague-Dawley
# Design: regimen Daily Repeat, gender Male, age 6-8 weeks
# Settings: in vivo, po, route oral GAVAGE, […]; for ABSOLUTE BASOPHIL / ABSOLUTE EOSINOPHIL / ABSOLUTE LYMPHOCYTE / ABSOLUTE MONOCYTE / ABSOLUTE SEGMENTED NEUTROPHIL / BASOPHIL / EOSINOPHIL / ERYTHROCYTE COUNT / HEMATOCRIT / HEMOGLOBIN / LEUKOCYTE COUNT / LYMPHOCYTE / MEAN CORPUSCULAR HEMOGLOBIN / MEAN CORPUSCULAR HEMOGLOBIN CONCENTRATION / MEAN CORPUSCULAR VOLUME / MONOCYTE / NEUTROPHIL / NUCLEATED RED BLOOD CELLS / PLATELET COUNT: tissue Blood; for ALANINE AMINOTRANSFERASE / ALBUMIN / ALKALINE PHOSPHATASE / ASPARTATE AMINOTRANSFERASE / BLOOD UREA NITROGEN / CARBON DIOXIDE / CHLORIDE / CHOLESTEROL / CREATINE PHOSPHOKINASE / CREATININE / GLUCOSE / LACTATE DEHYDROGENASE / LIPASE / PHOSPHORUS / POTASSIUM / SODIUM / TOTAL BILIRUBIN / TOTAL PROTEIN / URIC ACID: tissue Plasma
# [1] = 0 mg/kg, 72 h, dose level Control, time 3 day
# [2] = 0 mg/kg, 120 h, dose level Control, time 5 day
# [3] = 5 mg/kg, 72 h, dose level Low, time 3 day
compound,measurement,setting,value
O=c1oc2ccccc2c(O)c1Cc1c(O)c2ccccc2oc1=O [DICUMAROL],ABSOLUTE BASOPHIL,[1],0 CELLS/uL
same,ABSOLUTE EOSINOPHIL,[1],0 CELLS/uL
same,ABSOLUTE LYMPHOCYTE,[1],9244.83 CELLS/uL
same,ABSOLUTE MONOCYTE,[1],102 CELLS/uL
same,ABSOLUTE SEGMENTED NEUTROPHIL,[1],869.83 CELLS/uL
same,BASOPHIL,[1],0%
same,EOSINOPHIL,[1],0%
same,ERYTHROCYTE COUNT,[1],5.43 x10E6/uL
same,HEMATOCRIT,[1],34.03%
same,HEMOGLOBIN,[1],13.27 G/DL
same,LEUKOCYTE COUNT,[1],10.22 x10E3/uL
same,LYMPHOCYTE,[1],90.33%
same,MEAN CORPUSCULAR HEMOGLOBIN,[1],24.48 pg
same,MEAN CORPUSCULAR HEMOGLOBIN CONCENTRATION,[1],39.03 G/DL
same,MEAN CORPUSCULAR VOLUME,[1],62.75 fL
same,MONOCYTE,[1],1%
same,NEUTROPHIL,[1],8.67%
same,NUCLEATED RED BLOOD CELLS,[1],0.17 /100WBC
same,PLATELET COUNT,[1],989 x10E3/uL
same,ALANINE AMINOTRANSFERASE,[1],77 u/L
same,ALBUMIN,[1],3.97 G/DL
same,ALKALINE PHOSPHATASE,[1],464.83 u/L
same,ASPARTATE AMINOTRANSFERASE,[1],89.83 u/L
same,BLOOD UREA NITROGEN,[1],12.17 mg/dL
same,CARBON DIOXIDE,[1],34.17 mmol/L
same,CHLORIDE,[1],98.33 MEQ/L
same,CHOLESTEROL,[1],75.17 mg/dL
same,CREATINE PHOSPHOKINASE,[1],367.67 u/L
same,CREATININE,[1],0.16 mg/dL
same,GLUCOSE,[1],142.67 mg/dL
same,LACTATE DEHYDROGENASE,[1],139.33 u/L
same,LIPASE,[1],9.5 u/L
same,PHOSPHORUS,[1],10.85 mg/dL
same,POTASSIUM,[1],6.38 MEQ/L
same,SODIUM,[1],143.2 MEQ/L
same,TOTAL BILIRUBIN,[1],0.2 mg/dL
same,TOTAL PROTEIN,[1],5.77 G/DL
same,URIC ACID,[1],0.7 mg/dL
same,ABSOLUTE BASOPHIL,[2],0 CELLS/uL
same,ABSOLUTE EOSINOPHIL,[2],0 CELLS/uL
same,ABSOLUTE LYMPHOCYTE,[2],8295.33 CELLS/uL
same,ABSOLUTE MONOCYTE,[2],84.67 CELLS/uL
same,ABSOLUTE SEGMENTED NEUTROPHIL,[2],970 CELLS/uL
same,BASOPHIL,[2],0%
same,EOSINOPHIL,[2],0%
same,ERYTHROCYTE COUNT,[2],5.74 x10E6/uL
same,HEMATOCRIT,[2],36.22%
same,HEMOGLOBIN,[2],13.85 G/DL
same,LEUKOCYTE COUNT,[2],9.35 x10E3/uL
same,LYMPHOCYTE,[2],88.67%
same,MEAN CORPUSCULAR HEMOGLOBIN,[2],24.13 pg
same,MEAN CORPUSCULAR HEMOGLOBIN CONCENTRATION,[2],38.25 G/DL
same,MEAN CORPUSCULAR VOLUME,[2],63.08 fL
same,MONOCYTE,[2],1%
same,NEUTROPHIL,[2],10.33%
same,NUCLEATED RED BLOOD CELLS,[2],0.17 /100WBC
same,PLATELET COUNT,[2],883.83 x10E3/uL
same,ALANINE AMINOTRANSFERASE,[2],64.5 u/L
same,ALBUMIN,[2],4.12 G/DL
same,ALKALINE PHOSPHATASE,[2],425.67 u/L
same,ASPARTATE AMINOTRANSFERASE,[2],88.5 u/L
same,BLOOD UREA NITROGEN,[2],14.17 mg/dL
same,CARBON DIOXIDE,[2],30.5 mmol/L
same,CHLORIDE,[2],100.33 MEQ/L
same,CHOLESTEROL,[2],55.33 mg/dL
same,CREATINE PHOSPHOKINASE,[2],287.17 u/L
same,CREATININE,[2],0.2 mg/dL
same,GLUCOSE,[2],162.83 mg/dL
same,LACTATE DEHYDROGENASE,[2],111.33 u/L
same,LIPASE,[2],10.5 u/L
same,PHOSPHORUS,[2],10.32 mg/dL
same,POTASSIUM,[2],5.13 MEQ/L
same,SODIUM,[2],143.93 MEQ/L
same,TOTAL BILIRUBIN,[2],0.17 mg/dL
same,TOTAL PROTEIN,[2],5.9 G/DL
same,URIC ACID,[2],0.77 mg/dL
same,ABSOLUTE BASOPHIL,[3],0 CELLS/uL
same,ABSOLUTE EOSINOPHIL,[3],0 CELLS/uL
same,ABSOLUTE LYMPHOCYTE,[3],11414.33 CELLS/uL
same,ABSOLUTE MONOCYTE,[3],52 CELLS/uL
same,ABSOLUTE SEGMENTED NEUTROPHIL,[3],1133.67 CELLS/uL
same,BASOPHIL,[3],0%
same,EOSINOPHIL,[3],0%
same,ERYTHROCYTE COUNT,[3],5.32 x10E6/uL
same,HEMATOCRIT,[3],33.6%
same,HEMOGLOBIN,[3],13.17 G/DL
same,LEUKOCYTE COUNT,[3],12.6 x10E3/uL
same,LYMPHOCYTE,[3],91%
same,MEAN CORPUSCULAR HEMOGLOBIN,[3],24.8 pg
same,MEAN CORPUSCULAR HEMOGLOBIN CONCENTRATION,[3],39.2 G/DL
same,MEAN CORPUSCULAR VOLUME,[3],63.37 fL
same,MONOCYTE,[3],0.33%
same,NEUTROPHIL,[3],8.67%
same,NUCLEATED RED BLOOD CELLS,[3],0 /100WBC
same,PLATELET COUNT,[3],1057.33 x10E3/uL
same,ALANINE AMINOTRANSFERASE,[3],67.67 u/L
same,ALBUMIN,[3],4.03 G/DL
same,ALKALINE PHOSPHATASE,[3],399.67 u/L
same,ASPARTATE AMINOTRANSFERASE,[3],91 u/L
same,BLOOD UREA NITROGEN,[3],10.33 mg/dL
same,CARBON DIOXIDE,[3],32.67 mmol/L
same,CHLORIDE,[3],99 MEQ/L
same,CHOLESTEROL,[3],74 mg/dL
same,CREATINE PHOSPHOKINASE,[3],353.33 u/L
same,CREATININE,[3],0.24 mg/dL
same,GLUCOSE,[3],146 mg/dL
same,LACTATE DEHYDROGENASE,[3],177 u/L
same,LIPASE,[3],9 u/L
same,PHOSPHORUS,[3],11.23 mg/dL
same,POTASSIUM,[3],6.24 MEQ/L
same,SODIUM,[3],143.6 MEQ/L
same,TOTAL BILIRUBIN,[3],0.17 mg/dL
same,TOTAL PROTEIN,[3],5.7 G/DL
same,URIC ACID,[3],0.6 mg/dL
